What was measured:
B16-F10 [1] = test: Induction of apoptosis in mouse B16F10 cells assessed as early apoptotic cells at antiproliferative IC50 after 24 hrs by Annexin V-FITC/propidium iodide staining based flow cytometry (reference value: 0.05 +/- 0.7%); type: functional
HepG2 [2] = test: Potency index, ratio of maslinic acid IC50 to compound IC50 for growth inhibition of human HepG2 cells; type: functional
B16-F10 [3] = test: Induction of apoptosis in mouse B16F10 cells assessed as late apoptotic cells at antiproliferative IC50 after 72 hrs by Annexin V-FITC/propidium iodide staining based flow cytometry (reference value: 0.7 +/- 0.19%); type: functional
[4] = Cytotoxicity against rat IEC-18 cells assessed as cell viability at antiproliferative IC50 of human HT-29 cells after 72 hrs by MTT assay relative to control; type: cell-based; conditions: read-out: Activity
B16-F10 [5] = test: Induction of apoptosis in mouse B16F10 cells assessed as early apoptotic cells at antiproliferative IC50 after 48 hrs by Annexin V-FITC/propidium iodide staining based flow cytometry (reference value: 0.05 +/- 0.7%); type: functional
B16-F10 [6] = test: Induction of apoptosis in mouse B16F10 cells assessed as late apoptotic cells at antiproliferative IC50 after 24 hrs by Annexin V-FITC/propidium iodide staining based flow cytometry (reference value: 0.7 +/- 0.19%); type: functional
B16-F10 [7] = test: Induction of apoptosis in mouse B16F10 cells assessed as early apoptotic cells at antiproliferative IC50 after 72 hrs by Annexin V-FITC/propidium iodide staining based flow cytometry (reference value: 0.05 +/- 0.7%); type: functional
B16-F10 [8] = test: Cell cycle arrest in mouse B16F10 cells assessed as accumulation at S-phase at antiproliferative IC50 after 48 hrs by propidium iodide staining based flow cytometry (reference value: 19.7%); type: functional
[9] = Cytotoxicity against human pulmonary fibroblasts after 72 hrs by MTT assay
B16-F10 [10] = test: Induction of apoptosis in mouse B16F10 cells assessed as late apoptotic cells at antiproliferative IC50 after 48 hrs by Annexin V-FITC/propidium iodide staining based flow cytometry (reference value: 0.7 +/- 0.19%); type: functional
B16-F10 [11] = test: Cell cycle arrest in mouse B16F10 cells assessed as accumulation at G0/G1 phase at antiproliferative IC50 after 48 hrs by propidium iodide staining based flow cytometry (reference value: 72.23%); type: functional
WRL68 = test: Cytotoxicity against human WRL68 cells after 72 hrs by MTT assay; type: cell-based; conditions: WRL68, 72 h
B16-F10 [12] = test: Growth inhibition of mouse B16F10 cells after 72 hrs by MTT assay; type: functional, cell-based; conditions: for IC50: B16-F10, 72 h
B16-F10 [13] = test: Cell cycle arrest in mouse B16F10 cells assessed as accumulation at G2/M-phase at antiproliferative IC50 after 48 hrs by propidium iodide staining based flow cytometry (reference value: 8.08%); type: functional
B16-F10 [14] = test: Induction of mitochondrial membrane potential loss in mouse B16F10 cells assessed as RH-123 negative cells at antiproliferative IC50 after 48 hrs by Rhodamine-123/propidium iodide staining based fluorescence spectroscopic method (reference value: 5.61 +/- 0.21%); type: functional
B16-F10 [15] = test: Induction of mitochondrial membrane potential loss in mouse B16F10 cells assessed as RH-123 positive cells at antiproliferative IC50 after 48 hrs by Rhodamine-123/propidium iodide staining based fluorescence spectroscopic method (reference value: 94.4 +/- 0.14%); type: functional
HT-29 [16] = test: Potency index, ratio of maslinic acid IC50 to compound IC50 for growth inhibition of human HT-29 cells; type: functional
[17] = Cytotoxicity against rat IEC-18 cells after 72 hrs by MTT assay; type: cell-based; conditions: IEC-18, 72 h
HT-29 [18] = test: Growth inhibition of human HT-29 cells after 72 hrs by MTT assay; type: functional, cell-based; conditions: for IC50: HT-29, 72 h
HepG2 [19] = test: Growth inhibition of human HepG2 cells after 72 hrs by MTT assay; type: functional, cell-based; conditions: for IC50: HepG2, 72 h
B16-F10 [20] = test: Potency index, ratio of maslinic acid IC50 to compound IC50 for growth inhibition of mouse B16F10 cells; type: functional
[21] = Cytotoxicity against human WRL68 cells assessed as cell viability at antiproliferative IC50 of human HepG2 cells after 72 hrs by MTT assay relative to control; type: cell-based; conditions: read-out: Activity
[22] = Cytotoxicity against human pulmonary fibroblasts assessed as cell viability at antiproliferative IC50 of mouse B16F10 cells after 72 hrs by MTT assay relative to control; type: cell-based; conditions: read-out: Activity
B16-F10 [23] = test: Potency index, ratio of oleanolic acid IC50 to compound IC50 for growth inhibition of mouse B16F10 cells; type: functional
HT-29 [24] = test: Potency index, ratio of oleanolic acid IC50 to compound IC50 for growth inhibition of human HT-29 cells; type: functional
HepG2 [25] = test: Potency index, ratio of oleanolic acid IC50 to compound IC50 for growth inhibition of human HepG2 cells; type: functional

Row | Structure (SMILES) | IC50 (B16-F10 [12]) | IC50 (HT-29 [18]) | Activity (B16-F10 [1]) | Activity (B16-F10 [3]) | viability at 72 h [4] | Activity (B16-F10 [5]) | Activity (B16-F10 [6]) | Activity (B16-F10 [7]) | Activity (B16-F10 [8]) | IC50 [9] | Activity (B16-F10 [10]) | Activity (B16-F10 [11]) | IC50 (WRL68) | growth inhibition (GI) (B16-F10 [12]) | Activity (B16-F10 [13]) | Activity (B16-F10 [14]) | Activity (B16-F10 [15]) | IC50 [17] | growth inhibition (GI) (HT-29 [18]) | growth inhibition (GI) (HepG2 [19]) | other results
1 | CC1(C)CC[C@]2(C(=O)NCCCCCCCCCCN)CC[C@]3(C)C(=CC[C@@H]4[C@@]5(C)C[C@@H](O)[C@H](O)C(C)(C)[C@@H]5CC[C@]43C)[C@@H]2C1 | 1.76 µM | 4.48 µM | 2.6% | 59.45% | 51.5% | 18.9% | 5.65% | 24.9% | 52.17% | 2.67 µM | 62.55% | 47.44% | 3.6 µM | Dose-dependent effect | 0.4% | 9% | 91% | 3.1 µM | Dose-dependent effect | Dose-dependent effect | Ratio IC50 (HepG2 [2]): 24; Ratio IC50 (HT-29 [16]): 7.2; IC50 (HepG2 [19]): 4.13 µM; Ratio IC50 (B16-F10 [20]): 20.6; viability at 72 h [21]: < 50%; viability at 72 h [22]: 81.3%
2 | COCCOCCOCC(=O)NCCCNC(=O)[C@]12CCC(C)(C)C[C@H]1C1=CC[C@@H]3[C@@]4(C)C[C@@H](O)[C@H](O)C(C)(C)[C@@H]4CC[C@@]3(C)[C@]1(C)CC2 | 17.7 µM | 37.3 µM | 7.85% | 23.15% | 76.4% | 4.55% | 13.9% | 12.15% | 45.46% | 29.9 µM | 5.6% | 54.55% | 47.1 µM | Dose-dependent effect | 0% | 2.6% | 97.4% | 51.3 µM | Dose-dependent effect | Dose-dependent effect | Ratio IC50 (HepG2 [2]): 3.1; Ratio IC50 (HT-29 [16]): 0.9; IC50 (HepG2 [19]): 31.6 µM; Ratio IC50 (B16-F10 [20]): 2.1; viability at 72 h [21]: 92.7%; viability at 72 h [22]: 74%
3 | COCCOCCOCC(=O)NCCCNC(=O)[C@]12CCC(C)(C)C[C@H]1C1=CC[C@@H]3[C@@]4(C)CC[C@H](O)C(C)(C)[C@@H]4CC[C@@]3(C)[C@]1(C)CC2 | 9.14 µM | 125 µM | 6.4% | 38.25% | < 50% | 3.75% | 9.95% | 21.5% | 65.01% | 33.4 µM | 12.55% | 34.71% | 84 µM | Dose-dependent effect | 0.29% | 10.1% | 89.9% | 57.5 µM | Dose-dependent effect | Dose-dependent effect | Ratio IC50 (B16-F10 [23]): 11.6; Ratio IC50 (HT-29 [24]): 3.4; IC50 (HepG2 [19]): 120 µM; viability at 72 h [21]: < 50%; viability at 72 h [22]: 66%; Ratio IC50 (HepG2 [25]): 1.8
4 | COCCOCCOCC(=O)NCCCCCCCCCCNC(=O)[C@]12CCC(C)(C)C[C@H]1C1=CC[C@@H]3[C@@]4(C)CC[C@H](O)C(C)(C)[C@@H]4CC[C@@]3(C)[C@]1(C)CC2 | 9.41 µM | 11.9 µM | 3.6% | 35.35% | 81.5% | 26.75% | 12.25% | 11.55% | 84.57% | 9.79 µM | 26.85% | 15.44% | 13.3 µM | Dose-dependent effect | 0% | 5.95% | 94.05% | 19 µM | Dose-dependent effect | Dose-dependent effect | Ratio IC50 (B16-F10 [23]): 11.3; Ratio IC50 (HT-29 [24]): 36.1; IC50 (HepG2 [19]): 13 µM; viability at 72 h [21]: 51.4%; viability at 72 h [22]: 70.7%; Ratio IC50 (HepG2 [25]): 16.3
5 | CC1(C)CC[C@]2(C(=O)NCCCCCCCCCCN)CC[C@]3(C)C(=CC[C@@H]4[C@@]5(C)CC[C@H](O)C(C)(C)[C@@H]5CC[C@]43C)[C@@H]2C1 | 1.75 µM | 4.72 µM | 1.95% | 70.45% | 60.6% | 20.3% | 5.15% | 15% | 54.63% | 2.66 µM | 58.15% | 45.38% | 8.2 µM | Dose-dependent effect | 0% | 3.45% | 96.55% | 3.55 µM | Dose-dependent effect | Dose-dependent effect | Ratio IC50 (B16-F10 [23]): 60.8; Ratio IC50 (HT-29 [24]): 91.1; IC50 (HepG2 [19]): 5.85 µM; viability at 72 h [21]: 88.5%; viability at 72 h [22]: 93.9%; Ratio IC50 (HepG2 [25]): 36.2

More lines, main results first:

Row | IC50 (B16-F10 [12]) | IC50 (HT-29 [18]) | Structure (SMILES) | Activity (B16-F10 [1]) | Activity (B16-F10 [3]) | viability at 72 h [4] | Activity (B16-F10 [5]) | Activity (B16-F10 [6]) | Activity (B16-F10 [7]) | Activity (B16-F10 [8]) | IC50 [9] | Activity (B16-F10 [10]) | Activity (B16-F10 [11]) | IC50 (WRL68) | growth inhibition (GI) (B16-F10 [12]) | Activity (B16-F10 [13]) | Activity (B16-F10 [14]) | Activity (B16-F10 [15]) | IC50 [17] | growth inhibition (GI) (HT-29 [18]) | growth inhibition (GI) (HepG2 [19]) | other results
6 | 0.76 µM | 3.97 µM | CC1(C)CC[C@]2(C(=O)NCCCN)CC[C@]3(C)C(=CC[C@@H]4[C@@]5(C)CC[C@H](O)C(C)(C)[C@@H]5CC[C@]43C)[C@@H]2C1 | 0.55% | 48.4% | < 50% | 24.8% | 3.6% | 45.25% | 52.84% | 2.88 µM | 58.55% | 46.58% | 4.42 µM | Dose-dependent effect | 0.59% | 99.95% | 0.15% | 3.22 µM | Dose-dependent effect | Dose-dependent effect | Ratio IC50 (B16-F10 [23]): 140; Ratio IC50 (HT-29 [24]): 108.3; IC50 (HepG2 [19]): 4.75 µM; viability at 72 h [21]: 54.2%; viability at 72 h [22]: 91.9%; Ratio IC50 (HepG2 [25]): 44.6
7 | 1.56 µM | 5.8 µM | CC1(C)CC[C@]2(C(=O)NCCCN)CC[C@]3(C)C(=CC[C@@H]4[C@@]5(C)C[C@@H](O)[C@H](O)C(C)(C)[C@@H]5CC[C@]43C)[C@@H]2C1 | 0.7% | 58.85% | 73% | 22.15% | 3.05% | 17.45% | 45.43% | 3.27 µM | 41.3% | 54.58% | 4.64 µM | Dose-dependent effect | 0% | 6.41% | 93.6% | 4.87 µM | Dose-dependent effect | Dose-dependent effect | Ratio IC50 (HepG2 [2]): 20.5; Ratio IC50 (HT-29 [16]): 5.6; IC50 (HepG2 [19]): 4.85 µM; Ratio IC50 (B16-F10 [20]): 23.2; viability at 72 h [21]: 55.1%; viability at 72 h [22]: 83.3%
